# Measured values: patent US20070196490A1, “Method of enhancing needleless transdermal powered drug delivery” (priority 1999, published 2007)
# How the values were obtained:
# [1] = female, human, in vivo
# Experimental: (§1) In order to evaluate the bioavailability of a peptide drug (calcitonin) administered via particle injection, with and without post administration patch occlusion (relative to subcutaneous injection), the following clinical study was carried out.
# (§2) For subcutaneous injections, Miacalcic® calcitonin product was obtained from a commercial source and contained approximately 25 μg (100 IU) of salmon calcitonin (sCT) per ml. For particle injections, the calcitonin composition was formed from sCT at 8% w/w, PVP excipient at 2% w/w, in mannitol. The calcitonin composition was then lyophilized, compressed and then milled to produce particles suitable for use in a particle injection device. […] The 38-53 μm sieve fraction was obtained using a standard mesh screen.
# (§3) All particle injections were carried out using a PowderJect® model ND1 needleless syringe fitted with a porous silencer (obtained from PowderJect Technologies, Inc., Fremont, Calif.). […] The devices were operated as described in the '796 patent, using a 60 bar gas source, in order to deliver the sCT particles.
# (§4) Occlusive patches were produced by cutting Parafilm® discs which were held in-place by an adhesive dressing. In experimental groups receiving an occlusive dressing, the patch was placed on the skin covering the site of particle administration after sCT delivery and left in-place for the duration of the study (4 hours).
# (§5) The overall approach involved measuring pharmacokinetic and pharmacodynamic response parameters following the sCT dose in 24 healthy female subjects. The trial was designed as a single center, open, parallel group trial.
# (§6) Blood samples were collected via an indwelling catheter prior to and at 2, 5, 10, 20, 30, 45, 60, 90, 120, 180 and 240 minutes following administration of the calcitonin dose. sCT plasma concentrations were determined by ELISA (PPD Development, VA).
# clinical = conditions: female, human, in vivo
# Experimental: as §1, §2, §3, §4, §5, §6
compound,measurement,setting,value
"CC(C)C[C@H](NC(=O)[C@H](CCCCN)NC(=O)CNC(=O)[C@H](CC(C)C)NC(=O)[C@@H](NC(=O)[C@@H]1CSSC[C@H](N)C(=O)N[C@@H](CO)C(=O)N[C@@H](CC(N)=O)C(=O)N[C@@H](CC(C)C)C(=O)N[C@@H](CO)C(=O)N[C@@H]([C@@H](C)O)C(=O)N1)C(C)C)C(=O)N[C@@H](CO)C(=O)N[C@@H](CCC(N)=O)C(=O)N[C@@H](CCC(=O)O)C(=O)N[C@@H](CC(C)C)C(=O)N[C@@H](Cc1c[nH]cn1)C(=O)N[C@@H](CCCCN)C(=O)N[C@@H](CC(C)C)C(=O)N[C@@H](CCC(N)=O)C(=O)N[C@H](C(=O)N[C@@H](Cc1ccc(O)cc1)C(=O)N1CCC[C@H]1C(=O)N[C@@H](CCCNC(=N)N)C(=O)N[C@H](C(=O)N[C@@H](CC(N)=O)C(=O)N[C@H](C(=O)NCC(=O)N[C@@H](CO)C(=O)NCC(=O)N[C@H](C(=O)N1CCC[C@H]1C(N)=O)[C@@H](C)O)[C@@H](C)O)[C@@H](C)O)[C@@H](C)O [sCT, salmon calcitonin]",mean bioavailability (BA) relative to the SC injection,[1],5.1%
same,Tmax,clinical; sc,20 min
same,Tmax,"clinical; topical or ocular, 300 ug",5 min
